Results: article PMC4057101 (Science (New York, N.Y.), 2013)

Experiments:
Format in all cases: biochemical
acetate kinase (AckA) = acetate kinase (AckA) (Escherichia coli, UniProt P0A6A3); settings: ATP
NphT7 = biological target: T1, NphT7 (Streptomyces sp. CL190, UniProt D7URV0); experiment: steady-state kinetics, coupled assay with PhaB; settings: acetyl-CoA starter
T1 sequence (D7URV0 1-329): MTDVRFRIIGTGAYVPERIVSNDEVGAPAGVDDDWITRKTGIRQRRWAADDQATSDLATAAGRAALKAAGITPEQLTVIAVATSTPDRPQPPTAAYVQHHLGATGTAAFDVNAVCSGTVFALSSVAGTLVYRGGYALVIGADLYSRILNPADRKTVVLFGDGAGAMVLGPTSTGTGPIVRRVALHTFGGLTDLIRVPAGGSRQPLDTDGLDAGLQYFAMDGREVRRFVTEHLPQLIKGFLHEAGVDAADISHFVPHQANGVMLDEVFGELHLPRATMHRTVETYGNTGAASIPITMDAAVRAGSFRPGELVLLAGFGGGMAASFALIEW

[1] = biological target: acetyl-CoA carboxylase (ACCase), AccABCD (Escherichia coli, UniProt P0A9Q5+P0ABD5); experiment: one-pot carboxylation; settings: formed in situ from fluoroacetate by AckA-Pta; 500 μM CoA
acetyl-CoA carboxylase (ACCase), AccABCD, sequence (P0A9Q5 whole entry): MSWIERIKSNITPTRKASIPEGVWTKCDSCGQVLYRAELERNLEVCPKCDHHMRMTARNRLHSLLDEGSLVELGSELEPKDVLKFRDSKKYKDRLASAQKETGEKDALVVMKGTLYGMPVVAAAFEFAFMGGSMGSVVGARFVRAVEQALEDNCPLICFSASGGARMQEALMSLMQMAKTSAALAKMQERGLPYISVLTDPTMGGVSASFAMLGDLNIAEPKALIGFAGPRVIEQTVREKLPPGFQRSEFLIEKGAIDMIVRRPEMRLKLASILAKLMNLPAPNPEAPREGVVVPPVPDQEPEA
acetyl-CoA carboxylase (ACCase), AccABCD, sequence (P0ABD5 2-319): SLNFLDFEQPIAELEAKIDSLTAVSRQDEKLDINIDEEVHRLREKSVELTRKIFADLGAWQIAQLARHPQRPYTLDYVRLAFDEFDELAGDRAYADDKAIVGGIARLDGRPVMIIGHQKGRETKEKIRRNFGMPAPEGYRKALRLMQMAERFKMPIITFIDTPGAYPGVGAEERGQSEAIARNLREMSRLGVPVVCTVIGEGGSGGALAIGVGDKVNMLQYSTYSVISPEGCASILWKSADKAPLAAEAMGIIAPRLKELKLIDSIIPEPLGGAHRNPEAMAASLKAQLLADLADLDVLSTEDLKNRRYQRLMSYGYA

DEBSMod6+TE = DEBSMod6+TE (Saccharopolyspora erythraea, UniProt Q03133); experiment: LC-MS of triketide lactone formation; settings: NDK-SNAC, MatB and ATP regeneration
DEBSMod6+TE, sequence (Q03133 1468-3172): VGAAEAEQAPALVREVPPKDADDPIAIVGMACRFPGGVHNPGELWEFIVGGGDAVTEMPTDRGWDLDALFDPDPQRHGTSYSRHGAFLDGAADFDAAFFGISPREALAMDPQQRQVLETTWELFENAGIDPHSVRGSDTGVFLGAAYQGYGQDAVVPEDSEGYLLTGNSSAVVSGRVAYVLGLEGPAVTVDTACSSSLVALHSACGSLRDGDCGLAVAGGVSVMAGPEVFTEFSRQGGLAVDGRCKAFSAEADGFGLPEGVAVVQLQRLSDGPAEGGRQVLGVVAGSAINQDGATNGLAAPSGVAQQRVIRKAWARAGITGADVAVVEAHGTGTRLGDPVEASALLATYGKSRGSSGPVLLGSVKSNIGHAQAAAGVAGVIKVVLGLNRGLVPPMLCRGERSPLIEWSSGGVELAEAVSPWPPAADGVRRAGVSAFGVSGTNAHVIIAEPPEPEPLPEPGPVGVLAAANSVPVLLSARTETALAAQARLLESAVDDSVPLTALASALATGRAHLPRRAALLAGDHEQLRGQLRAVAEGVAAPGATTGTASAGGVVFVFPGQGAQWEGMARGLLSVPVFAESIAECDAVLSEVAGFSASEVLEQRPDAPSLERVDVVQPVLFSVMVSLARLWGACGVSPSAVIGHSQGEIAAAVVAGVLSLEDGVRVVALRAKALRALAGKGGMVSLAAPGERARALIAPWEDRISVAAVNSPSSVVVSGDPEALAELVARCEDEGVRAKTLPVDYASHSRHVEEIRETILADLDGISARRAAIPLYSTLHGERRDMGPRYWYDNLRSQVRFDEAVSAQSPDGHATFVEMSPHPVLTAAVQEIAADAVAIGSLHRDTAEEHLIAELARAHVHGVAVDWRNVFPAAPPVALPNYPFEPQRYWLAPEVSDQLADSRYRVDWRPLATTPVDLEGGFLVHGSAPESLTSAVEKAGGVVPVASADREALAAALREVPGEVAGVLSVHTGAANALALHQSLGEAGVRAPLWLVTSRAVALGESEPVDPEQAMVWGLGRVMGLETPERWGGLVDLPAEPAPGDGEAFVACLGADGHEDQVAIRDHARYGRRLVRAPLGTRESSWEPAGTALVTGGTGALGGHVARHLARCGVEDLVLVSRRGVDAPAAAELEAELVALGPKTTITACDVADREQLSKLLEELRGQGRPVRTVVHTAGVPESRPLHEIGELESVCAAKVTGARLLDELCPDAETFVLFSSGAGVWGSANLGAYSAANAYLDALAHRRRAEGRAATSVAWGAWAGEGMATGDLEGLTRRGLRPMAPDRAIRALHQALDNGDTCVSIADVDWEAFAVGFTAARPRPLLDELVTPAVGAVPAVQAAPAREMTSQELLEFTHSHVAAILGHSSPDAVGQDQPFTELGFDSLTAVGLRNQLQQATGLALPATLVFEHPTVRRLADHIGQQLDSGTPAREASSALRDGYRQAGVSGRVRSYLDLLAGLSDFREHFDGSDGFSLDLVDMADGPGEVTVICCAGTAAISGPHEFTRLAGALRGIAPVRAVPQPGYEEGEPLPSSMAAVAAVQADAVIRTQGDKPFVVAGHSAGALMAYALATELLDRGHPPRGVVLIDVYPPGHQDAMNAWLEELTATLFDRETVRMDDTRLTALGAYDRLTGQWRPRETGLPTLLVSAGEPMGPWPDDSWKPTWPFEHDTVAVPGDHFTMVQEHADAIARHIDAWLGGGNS

PhaB = PhaB (Cupriavidus necator, UniProt P14697); experiment: coupled reduction with NphT7; settings: substrate formed in situ by NphT7
PhaB, sequence (P14697 whole entry): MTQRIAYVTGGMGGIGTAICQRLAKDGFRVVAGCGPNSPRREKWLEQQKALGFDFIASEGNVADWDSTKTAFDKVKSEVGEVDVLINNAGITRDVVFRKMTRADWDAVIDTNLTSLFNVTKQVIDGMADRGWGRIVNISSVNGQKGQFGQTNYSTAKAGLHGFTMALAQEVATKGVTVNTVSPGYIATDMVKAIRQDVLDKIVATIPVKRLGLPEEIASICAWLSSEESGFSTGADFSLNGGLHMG

acetate kinase (AckA), sequence (P0A6A3 whole entry): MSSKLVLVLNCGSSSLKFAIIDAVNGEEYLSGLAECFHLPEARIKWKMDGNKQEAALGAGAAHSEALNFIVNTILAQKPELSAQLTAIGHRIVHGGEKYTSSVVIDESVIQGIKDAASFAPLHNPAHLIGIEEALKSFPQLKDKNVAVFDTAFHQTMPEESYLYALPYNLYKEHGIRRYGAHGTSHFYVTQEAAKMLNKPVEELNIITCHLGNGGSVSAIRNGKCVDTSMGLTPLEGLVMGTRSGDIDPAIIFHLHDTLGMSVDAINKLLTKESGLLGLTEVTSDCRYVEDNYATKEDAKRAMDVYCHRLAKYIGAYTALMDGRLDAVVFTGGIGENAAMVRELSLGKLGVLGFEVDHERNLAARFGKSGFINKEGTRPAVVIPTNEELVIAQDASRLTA

`CC(=O)O` [acetate] was tested, and the KM (acetate kinase (AckA)) was “rapidly produce both acetyl- and fluoroacetyl-CoA in nearly quantitative yield”.
In the case of `CC(C)(COP(=O)(O)OP(=O)(O)OC[C@H]1O[C@@H](n2cnc3c(N)ncnc32)[C@H](O)[C@@H]1OP(=O)(O)O)[C@@H](O)C(=O)NCCC(=O)NCCSC(=O)CC(=O)O` [malonyl-CoA], the KM (NphT7) is reported as “Steady-state kinetic parameters for NphT7-catalyzed C–C bond formation”.
With `CC(C)(COP(=O)(O)OP(=O)(O)OC[C@H]1O[C@@H](n2cnc3c(N)ncnc32)[C@H](O)[C@@H]1OP(=O)(O)O)[C@@H](O)C(=O)NCCC(=O)NCCSC(=O)CF` [fluoroacetyl-CoA] the one-pot carboxylation [1] was “carry out the carboxylation of fluoroacetate in a one-pot reaction to generate the fluoromalonyl-CoA”.
`CC(C)(COP(=O)(O)OP(=O)(O)OC[C@H]1O[C@@H](n2cnc3c(N)ncnc32)[C@H](O)[C@@H]1OP(=O)(O)O)[C@@H](O)C(=O)NCCC(=O)NCCSC(=O)C(F)C(=O)O` (some centres unmarked) [fluoromalonyl-CoA] was tested, and the KM (NphT7) was “formation of acetofluoroacetyl-CoA using an acetyl-CoA starter and fluoromalonyl-CoA extender” and the “LC-MS of triketide lactone formation” value (DEBSMod6+TE) was “DEBSMod6+TE is also able to accept the fluorinated monomer in chain extension catalysis”.
In the case of `O=C(O)CF` [fluoroacetate], the KM (acetate kinase (AckA)) is reported as “Analysis of the kinetic parameters for these enzymes with respect to fluorinated substrates”.
In the case of `CC(C(=O)O)C(=O)SCCNC(=O)CCNC(=O)[C@H](O)C(C)(C)COP(=O)(O)OP(=O)(O)OC[C@H]1O[C@@H](n2cnc3c(N)ncnc32)[C@H](O)[C@@H]1OP(=O)(O)O` (some centres unmarked) [methylmalonyl-CoA], the “LC-MS of triketide lactone formation” value (DEBSMod6+TE) is reported as “single round of chain elongation with its native methylmalonyl-CoA extender unit”.
For `CC(=O)C(F)C(=O)SCCNC(=O)CCNC(=O)[C@H](O)C(C)(C)COP(=O)(O)OP(=O)(O)OC[C@H]1O[C@@H](n2cnc3c(N)ncnc32)[C@H](O)[C@@H]1OP(=O)(O)O` (some centres unmarked) [acetofluoroacetyl-CoA], the “coupled reduction with NphT7; 1H and 19F NMR of product” value (PhaB) was “PhaB is capable of efficiently reducing the acetofluoroacetyl-CoA substrate”.
